Literature values, collected in patent publication US20250049738A1, “METHOD OF TREATMENT AND SELECTION OF PATIENTS BENEFITING FROM AGOMELATINE BASED ON EEG MEASUREMENTS” (Alto Neuroscience, Inc., priority 2023, published 2025).

Key:
depression = details: in vivo; cited from earlier work
circadian rhythm = details: in vivo; cited from earlier work

For `COc1ccc2[nH]cc(CCNC(C)=O)c2c1` [melatonin], the antidepressant efficacy (depression) is given as “not an effective antidepressant” and the “effect on circadian rhythm” value (circadian rhythm) is given as “phase advance circadian rhythm”.
